Experiments:
[1] = Antiinflammatory activity in mouse macrophages assessed as inhibition of IFN-gamma-induced nitric oxide production after 48 hrs by Griess method; type: functional, cell-based; conditions: Macrophage
[2] = Cytotoxicity against mouse Hepa-1c1c7 cells after 48 hrs; type: cell-based; conditions: read-out: LD50
[3] = target: NAD(P)H dehydrogenase [quinone] 1 (Mus musculus) (UniProt Q64669); assay: Induction of NQO1 activity in mouse Hepa-1c1c7 cells after 48 hrs by Prochaska method; type: cell-based
[4] = target: NAD(P)H dehydrogenase [quinone] 1 (Mus musculus) (UniProt Q64669); assay: Induction of NQO1 activity in mouse hepatoma cells; type: cell-based

Chain of NAD(P)H dehydrogenase [quinone] 1 (Mus musculus) (Q64669 whole entry): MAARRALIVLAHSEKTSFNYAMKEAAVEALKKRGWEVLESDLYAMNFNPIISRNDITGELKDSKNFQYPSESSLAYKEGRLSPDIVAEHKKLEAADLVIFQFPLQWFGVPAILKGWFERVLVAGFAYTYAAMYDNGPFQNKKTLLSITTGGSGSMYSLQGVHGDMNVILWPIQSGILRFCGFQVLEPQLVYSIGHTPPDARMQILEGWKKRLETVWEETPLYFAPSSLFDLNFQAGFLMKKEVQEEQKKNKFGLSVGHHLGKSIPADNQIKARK

Q: For `CC1(C)CC[C@]2(C(=O)O)CC[C@]3(C)[C@H](C(=O)C=C4[C@@]5(C)C=C(C#N)C(=O)C(C)(C)[C@@H]5CC[C@]43C)[C@@H]2C1` [BARDOXOLONE], which IC50 [1] is on record?
A: 0.0004 µM

Q: For `CC[S+]([O-])C(=O)N(CCCC[S+](C)[O-])Cc1ccccc1` (stereo not given), which CC50 at 48 h [2] is on record?
A: > 200 µM

Q: What about the CD [3] of the same molecule?
A: 13 µM

Q: For `CC(=O)[C@H]1CC2CC1[C@H](N=C=S)C2` (relative stereo), which CD [4] is on record?
A: 0.3 µM

Q: Which CD [4] does the source give for `COC(=O)CCCCN=C=S` here?
A: 2.8 µM

Q: Which IC50 [1] does the source give for `CC1(C)CC[C@]2(C(=O)O)CC[C@]3(C)C(=CC[C@H]4C3(C)CC[C@H]3C(C)(C)C(=O)C(O)=C[C@@]34C)[C@@H]2C1` (single isomer, unassigned) here?
A: 37 µM

Q: Which CC50 at 48 h [2] does the source give for `CC[S+]([O-])C(=O)N(CCCC[S+](C)[O-])Cc1ccc(-c2ccccc2)cc1` (stereo not given) here?
A: 16 µM

Q: And the CD [3]?
A: 2.8 µM

Q: Which CD [4] does the source give for `CS(=O)(=O)[C@@H]1CCC[C@@H](CN=C=S)C1` (relative stereo) here?
A: 0.5 µM

Q: With `CP(C)(=O)CCCCN=C=S` as the molecule, how does the CD [4] read?
A: 0.4 µM

Q: With `CCCCCCN=C=S` as the molecule, how does the CD [4] read?
A: 15 µM

Q: Which CD [4] does the source give for `CC(=O)[C@@H]1CC2CC1[C@H](N=C=S)C2` (relative stereo) here?
A: 0.8 µM

Q: Which CD [4] does the source give for `CS(=O)(=O)[C@H]1CC2CC1[C@H](N=C=S)C2` (relative stereo) here?
A: 0.2 µM

Q: With `CC[S+]([O-])C(=O)N(CCCC[S+](C)[O-])C1CCCCC1` (stereo not given) as the molecule, how does the CC50 at 48 h [2] read?
A: > 200 µM

Q: What about the CD [3] of the same molecule?
A: 64 µM

Q: For `CC[S+]([O-])C(=O)N(CCCC[S+](C)[O-])C1CC1` (stereo not given), which CC50 at 48 h [2] is on record?
A: > 200 µM

Q: What about the CD [3] of the same molecule?
A: 43 µM

Q: For `O=[N+]([O-])[C@H]1CC2CC1C[C@@H]2N=C=S` (stereo not given in full), which CD [4] is on record?
A: 1.1 µM

Q: Which CD [4] does the source give for `COC(=O)[C@H]1CC2CC1C[C@@H]2N=C=S` (stereo not given in full) here?
A: 0.7 µM

Q: Which CD [4] does the source give for `C[S@+]([O-])CCCCN=C=S` here?
A: 0.2 µM

Q: With `CC[S+]([O-])C(=O)N(C)CCCC[S+](C)[O-]` (stereo not given) as the molecule, how does the CC50 at 48 h [2] read?
A: > 200 µM

Q: And the CD [3]?
A: 94 µM

Q: For `CC1(C)CC[C@]2(C(=O)O)CC[C@]3(C)C(=CC[C@@H]4[C@@]5(C)CC[C@H](O)C(C)(C)[C@@H]5CC[C@]43C)[C@@H]2C1` [OLEANOLIC_ACID], which IC50 [1] is on record?
A: > 40 µM

Q: For `CC1(C)CC[C@]2(C(=O)O)CC[C@]3(C)C(=CC[C@@H]4[C@@]5(C)C=CC(=O)C(C)(C)[C@@H]5CC[C@]43C)[C@@H]2C1`, which IC50 [1] is on record?
A: 7.1 µM

Q: Which CC50 at 48 h [2] does the source give for `CC[S+]([O-])C(=O)N(CCCC[S+](C)[O-])c1ccccc1` (stereo not given) here?
A: > 200 µM

Q: What about the CD [3] of the same molecule?
A: 43 µM

Q: For `CC(O)[C@H]1CC2CC1C[C@@H]2N=C=S` (stereo not given in full), which CD [4] is on record?
A: 0.5 µM

Q: For `N#CCCCCN=C=S`, which CD [4] is on record?
A: 2 µM

Q: For `CS(=O)(=O)[C@@H]1CCC[C@H](CN=C=S)C1` (relative stereo), which CD [4] is on record?
A: 0.4 µM

Q: What does the source list for `CC[S+]([O-])C(=O)N(CCCC[S+](C)[O-])Cc1ccc(C(C)(C)C)cc1` (stereo not given)?
A: CC50 at 48 h [2]: 32 µM; CD [3]: 3.8 µM

Q: Which IC50 [1] does the source give for `CC1(C)CC[C@]2(C(=O)O)CC[C@]3(C)C(=CC(=O)[C@@H]4[C@@]5(C)C=CC(=O)C(C)(C)[C@@H]5CC[C@]43C)[C@@H]2C1` here?
A: 1.4 µM

Q: For `COC(=O)[C@H]1CC2CC1[C@H](N=C=S)C2` (stereo not given in full), which CD [4] is on record?
A: 1.6 µM

Q: With `CS(=O)(=O)[C@H]1CC2CC1C[C@@H]2N=C=S` (stereo not given in full) as the molecule, how does the CD [4] read?
A: 0.7 µM

Q: Which CC50 at 48 h [2] does the source give for `CC[S+]([O-])C(=O)N(CCCC[S+](C)[O-])Cc1ccc(F)cc1F` (stereo not given) here?
A: > 50 µM

Q: What about the CD [3] of the same molecule?
A: 7.3 µM

Q: Which CD [4] does the source give for `CCCCC(=O)CCCCN=C=S` here?
A: 2 µM

Q: With `N#C[C@H]1CC2CC1C[C@@H]2N=C=S` (stereo not given in full) as the molecule, how does the CD [4] read?
A: 0.6 µM

Q: With `CC(=O)CCCCN=C=S` as the molecule, how does the CD [4] read?
A: 0.2 µM

Q: With `O[C@@H]1CC2CC1C[C@@H]2N=C=S` (stereo not given in full) as the molecule, how does the CD [4] read?
A: 19 µM

Q: With `CS(=O)(=O)[C@@H]1CC2CC1[C@H](N=C=S)C2` (relative stereo) as the molecule, how does the CD [4] read?
A: 1 µM

Q: Which CC50 at 48 h [2] does the source give for `CCCN(CCCC[S+](C)[O-])C(=O)[S+]([O-])CC` (stereo not given) here?
A: > 200 µM

Q: And the CD [3]?
A: 35 µM

Q: Which CC50 at 48 h [2] does the source give for `CC[S+]([O-])C(=O)N(CCCC[S+](C)[O-])Cc1cccc2ccccc12` (stereo not given) here?
A: > 50 µM

Q: What about the CD [3] of the same molecule?
A: 5.3 µM

Q: For `CC(=O)[C@H]1CC2CC1C[C@@H]2N=C=S` (stereo not given in full), which CD [4] is on record?
A: 0.4 µM

Q: For `CC1(C)CC[C@]2(C(=O)O)CC[C@]3(C)[C@H](C(=O)C=C4[C@@]5(C)C=CC(=O)C(C)(C)[C@@H]5CC[C@]43C)[C@@H]2C1`, which IC50 [1] is on record?
A: 0.17 µM

Q: With `CSC(=O)CCCCN=C=S` as the molecule, how does the CD [4] read?
A: 2.8 µM

Q: Which CD [4] does the source give for `O=C(O)CCCCN=C=S` here?
A: 2.2 µM

Q: For `CS(=O)(=O)[C@H]1CC[C@@H](N=C=S)CC1`, which CD [4] is on record?
A: 0.4 µM

Source: ChEMBL document CHEMBL2429766, “Keap calm, and carry on covalently” (J Med Chem, 2013)
